# From article PMC4019984, “Kinase and channel activity of TRPM6 are co-ordinated by a dimerization motif and pocket interaction” (Biochemical Journal, 2014)
# Columns and labels:
# Assay type in all cases: binding, human
# [1] = system: full-length FLAG-tagged wild-type TRPM6; assay: Peptide pull-down, full-length wild-type TRPM6; conditions: full-length wild-type TRPM6, HEK-293 lysate, 3 μg peptide, 4°C; anti-FLAG immunoblot
# Procedure: (§1) The peptides biotin-C6-[…]-TIPFTPVQLFAGEEITV (wild-type) and biotin-C6-LKSPQE-[…] (mutant) were purchased from GL Biochem. For a peptide pull-down, 1–5 mg of lysate was incubated with 3 μg of the respective peptide for 10 min at 4°C under gentle agitation, followed by 5 min of incubation with 10–20 μl of streptavidin beads at 4°C. The immunoprecipitates were washed three times with lysis buffer containing 0.15 M NaCl and then twice with buffer A. Proteins were eluted by resuspending washed immunoprecipitates in 30 μl of SDS sample buffer.
# (§2) Figure 2 Identification of dimerization motif residues in TRPM6 (A) Structural model of TRPM7 α-kinase depicting the N-terminal non-catalytic α-helix of one monomer that interacts with the kinase segment of the other monomer. (B) Fluorescence polarization analysis of wild-type (WT) and mutant (Mut) dimerization motif peptides with E. coli-purified GST-tagged TRPM6-(1730–end). […] The samples were analysed by immunoblotting with anti-GST antibody (top panel). […] Proteins were separated by SDS/PAGE, stained with Coomassie Blue (top and middle gels) and MBP phosphorylation was detected by autoradiography (bottom gel). […] Proteins were separated by SDS/PAGE, stained with Coomassie Blue (top and middle gels) and MBP phosphorylation was detected by autoradiography (bottom gel). […] The pull-down samples were analysed by immunoblotting with anti-FLAG antibody (top panel). […]
# [2] = system: GST-tagged TRPM6-(1730–end) L1840A; assay: Peptide pull-down, L1840A mutant; conditions: HEK-293 lysate, 3 μg peptide, 4°C, anti-GST immunoblot
# Procedure: as §1, with “buffer. […]” for “buffer.”
# (§3) Figure 3 Analysis of the dimerization pocket residues (A) Structural model of TRPM6 based on TRPM7 α-kinase depicting the binding of Leu^1718 and Leu^1721 to other residues in the α-kinase domain. […] The samples were analysed by immunoblotting with anti-GST antibody (top panel). […] (C) Fluorescence polarization analysis of the dimerization motif peptide with E. coli purified GST-tagged TRPM6-(1730–end) and indicated mutants. […] Proteins were separated by SDS/PAGE, stained with Coomassie Blue (top and middle panels) and MBP phosphorylation was detected by autoradiography (bottom panel). […] Proteins were separated by SDS/PAGE, stained with Coomassie Blue (top and middle gels) and MBP phosphorylation was detected by autoradiography (bottom gel). […]
# [3] = system: GST-tagged TRPM6-(1730–end) L1743A; assay: Peptide pull-down, L1743A mutant; conditions: HEK-293 lysate, 3 μg peptide, 4°C, anti-GST immunoblot
# Procedure: as §1, with “buffer. […]” for “buffer.”
# as §3
# [4] = system: GST-tagged TRPM6-(1730–end) A1836N; assay: Peptide pull-down, A1836N mutant; conditions: HEK-293 lysate, 3 μg peptide, 4°C, anti-GST immunoblot
# Procedure: as §1, with “buffer. […]” for “buffer.”
# as §3
# [5] = system: GST-tagged TRPM6-(1730–end) Q1832K; assay: Peptide pull-down, Q1832K mutant; conditions: HEK-293 lysate, 3 μg peptide, 4°C, anti-GST immunoblot
# Procedure: as §1, with “buffer. […]” for “buffer.”
# as §3
# [6] = system: GST-tagged TRPM6-(1730–end) L1919Q; assay: Peptide pull-down, L1919Q mutant; conditions: HEK-293 lysate, 3 μg peptide, 4°C, anti-GST immunoblot
# Procedure: as §1, with “buffer. […]” for “buffer.”
# as §3
# [7] = system: full-length FLAG-tagged kinase-inactive TRPM6; assay: Peptide pull-down, full-length kinase-inactive TRPM6; conditions: full-length kinase-inactive TRPM6, HEK-293 lysate, 3 μg peptide, 4°C; anti-FLAG immunoblot
# Procedure: as §1, §2
substance,measurement,setting,value
"biotin-C6-LKSPQEPHHHYSAIERNNLMRLSQ-TIPFTPVQLFAGEEITV [biotinylated dimerization motif peptide, biotin-C6 wild-type dimerization motif peptide; conjugated to streptavidin–Sepharose]",interaction with biotinylated dimerization motif peptide (pull-down),[1],do not interact
same,binding to biotinylated dimerization motif peptide (pull-down),[2],abolished binding to the peptide
same,binding to biotinylated dimerization motif peptide (pull-down),[3],abolished binding to the peptide
same,binding to biotinylated dimerization motif peptide (pull-down),[4],abolished binding to the peptide
same,binding to biotinylated dimerization motif peptide (pull-down),[5],abolished binding to the peptide
same,binding to biotinylated dimerization motif peptide (pull-down),[6],abolished binding to the peptide
same,interaction with biotinylated dimerization motif peptide (pull-down),[7],do not interact
